From PMC10820527, “Synthesis, Characterization, and Investigation of Anti-Inflammatory and Cytotoxic Activities of Novel Thiourea Derivatives of Naproxen” (Pharmaceutics, 2023)

Legend:
[1] = system: carrageenan-induced rat paw edema; test: Carrageenan-induced rat paw edema model; type: in vivo; conditions: for Rat Paw Thickness: mean ± SD; for inhibition in vivo at 2.5 mg/kg / inhibition in vivo at 5 mg/kg / inhibition in vivo at 10 mg/kg: Rattus norvegicus
Procedure: The Carrageenan-induced rat paw edema model was used to assess the anti-inflammatory potential of novel compounds 8–14. Induction of inflammation was performed in all animals by intraplantar injection of […] 0.5% carrageenan saline into the left hind paw.
Animals (n = 200) were randomly divided into the following groups: control groups, that received either 1% DMSO or naproxen, and experimental groups, that received the novel compounds 8–14.
Control groups included DMSO and naproxen groups. Rats belonging to the DMSO group received 1% DMSO in the same volume as the compounds 8–14, 60 min before carrageenan injection. Moreover, naproxen groups included rats that were subjected to naproxen treatment in three doses: 2.5 mg/kg, 5 mg/kg, and 10 mg/kg. Naproxen was applied in the same manner as 1% DMSO.
Experimental groups included rats that were treated with compounds 8–14 and they were divided into three subgroups depending on the applied dose: 2.5 mg/kg, 5 mg/kg, and 10 mg/kg. The examined compounds were dissolved in 1% DMSO prior to treatment and applied to rats 60 min before inducing inflammation, i.e., before carrageenan injection. Doses of naproxen and investigated compounds were defined based on our previously published research.
In order to quantify the anti-inflammatory effects of the tested compounds, left paw thickness was measured at specific time points: prior to inflammation induction (moment 0) and 1, 2, 3, and 4 h (moments 1, 2, 3, and 4) following carrageenan injection. Tissue thickness was measured in the middle of the rat paw using a Digital Vernier caliper (Aerospace, China). The percentage of inhibition of paw edema after treatment with different agents was calculated according to the formula, Equation (2):% Inhibition = 100 × [1 − (Yt/Yc)](2) where Yt = average increase in paw thickness in the treated group of rats between two measurement moments, and Yc = average increase in paw thickness in the untreated group of rats between two measurement moments.

[2] = system: HCT 116; test: MTT cytotoxicity assay, HCT 116; type: cell-based, human; conditions: for IC50: Homo sapiens, mean ± SD
Procedure: Three cancer cell lines (MDA-MB-231, HCT116 and HeLa; i.e., human breast cancer cells, human colorectal cancer cells, and human cervical cancer cells, respectively), and one non-malignant fibroblast MRC-5 cell line (control) were used in this study. The American Type Cell Collection (ATCC, Manassas, VA, USA) provided all examined cell lines. The cells were grown in a complete medium made up of high-glucose DMEM media supplemented with 10% fetal bovine serum and […] L-glutamine (both from Sigma-Aldrich, USA). The cells were cultured in 25 cc flasks (Thermo Fischer Scientific, Waltham, MA, USA) at 37 °C with 100% humidity in a 5% CO2 atmosphere.
The MTT test was used to assess the cytotoxicity of compounds 1–14 [44]. The cytotoxicity of naproxen was also investigated due to its clinical use and structural similarity. Throughout the exponential development period, cells were taken from culture flasks and counted, and 5 × 10^3 cells/well were planted into 96-well culture plates. Following that, the cell lines were treated with varying doses of the investigated chemicals (1–14), naproxen ([…]), and fresh complete media as a control. All evaluated cells were incubated for 24, 48, and 72 h at 37 °C in an environment containing 5% CO2 and 100% humidity. Following incubation, each well’s culture media was taken out, each well received an addition of MTT solution at a final concentration of 0.5 mg/mL, and the cells were left to incubate for an additional four hours. The MTT solution was then withdrawn carefully, and the formazan crystals were dissolved in DMSO. After shaking the plates for 10 min, absorbance at 595 nm was measured using a multiplate reader (Zenyth 3100, Anthos Labtec Instruments, Salzburg, Austria). All concentrations of the tested compounds were performed in three separate wells of the microtiter plates and in three separate experiments. The results were reported as a ratio to the control value, untreated cells. IC50 values were also determined using Microsoft Office Excel 2021. The percentage of viable cells was estimated by dividing the readout absorbance value in the wells containing treated cells by the average absorbance value measured in the wells containing untreated cells, and multiplying the result by 100 [44]. % of the viable cells = ((absorbance of treated cell-absorbance of blank)/(absorbance of untreated cell-absorbance of blank)) × 100(3)

[3] = 2.5 mg/kg, 1 h after carrageenan
[4] = 2.5 mg/kg, 2 h after carrageenan
[5] = 2.5 mg/kg, 3 h after carrageenan
[6] = 2.5 mg/kg, 4 h after carrageenan
[7] = 5.0 mg/kg, 1 h after carrageenan
[8] = 5.0 mg/kg, 2 h after carrageenan
[9] = 5.0 mg/kg, 3 h after carrageenan
[10] = 5.0 mg/kg, 4 h after carrageenan
[11] = 10.0 mg/kg, 1 h after carrageenan
[12] = 10.0 mg/kg, 2 h after carrageenan
[13] = 10.0 mg/kg, 3 h after carrageenan
[14] = 10.0 mg/kg, 4 h after carrageenan

SMILES | Rat Paw Thickness [1, 3] [mm] | Rat Paw Thickness [1, 4] [mm] | Rat Paw Thickness [1, 5] [mm] | Rat Paw Thickness [1, 6] [mm] | Rat Paw Thickness [1, 7] [mm] | Rat Paw Thickness [1, 8] [mm] | Rat Paw Thickness [1, 9] [mm] | Rat Paw Thickness [1, 10] [mm] | Rat Paw Thickness [1, 11] [mm] | Rat Paw Thickness [1, 12] [mm] | Rat Paw Thickness [1, 13] [mm] | Rat Paw Thickness [1, 14] [mm] | inhibition in vivo at 2.5 mg/kg ([1]; 2.5 mg/kg, 1 h) [%] | inhibition in vivo at 2.5 mg/kg ([1]; 2.5 mg/kg, 2 h) [%] | inhibition in vivo at 2.5 mg/kg ([1]; 2.5 mg/kg, 3 h) [%] | inhibition in vivo at 2.5 mg/kg ([1]; 2.5 mg/kg, 4 h) [%] | inhibition in vivo at 5 mg/kg ([1]; 5.0 mg/kg, 1 h) [%] | inhibition in vivo at 5 mg/kg ([1]; 5.0 mg/kg, 2 h) [%] | inhibition in vivo at 5 mg/kg ([1]; 5.0 mg/kg, 3 h) [%] | inhibition in vivo at 5 mg/kg ([1]; 5.0 mg/kg, 4 h) [%] | further results
COc1ccc2cc([C@H](C)C(=O)NC(=S)Nc3ccccc3)ccc2c1 [Compound 8, (S)-2-(6-methoxynaphthalen-2-yl)-N-(phenylcarbamothioyl)propanamide] | 5.67 ± 0.15 | 5.43 ± 0.15 | 5.07 ± 0.21 | 4.53 ± 0.50 | 6.0 ± 0.36 | 5.8 ± 0.44 | 5.40 ± 0.44 | 4.96 ± 0.35 | 6.0 ± 0.40 | 5.60 ± 0.44 | 5.27 ± 0.38 | 5.07 ± 0.21 | 19.7 | 21.2 | 26.1 | 44.4 | 23.8 | 24.2 | 31.5 | 44.9 | inhibition in vivo at 10 mg/kg ([1]; 10.0 mg/kg, 1 h): 29.3%; inhibition in vivo at 10 mg/kg ([1]; 10.0 mg/kg, 2 h): 39.4%; inhibition in vivo at 10 mg/kg ([1]; 10.0 mg/kg, 3 h): 45.9%; inhibition in vivo at 10 mg/kg ([1]; 10.0 mg/kg, 4 h): 46.7%; IC50 ([2]; HCT-116, 24 h): > 200 µM; IC50 ([2]; HCT-116, 48 h): > 200 µM; IC50 ([2]; HCT-116, 72 h): 101 ± 15.5 µM
COc1ccc2cc([C@H](C)C(=O)NC(=S)Nc3ccc(C)cc3)ccc2c1 [Compound 9, (S)-2-(6-methoxynaphthalen-2-yl)-N-(p-tolylcarbamothioyl)propanamide] | 6.60 ± 0.10 | 6.33 ± 0.06 | 5.97 ± 0.06 | 5.70 ± 0.26 | 6.53 ± 0.32 | 6.23 ± 0.23 | 5.90 ± 0.17 | 5.50 ± 0.36 | 6.20 ± 0.17 | 5.83 ± 0.29 | 5.33 ± 0.15 | 5.05 ± 0.09 | 25.2 | 28.8 | 35.1 | 37.8 | 22.4 | 27.3 | 31.5 | 42.2 | inhibition in vivo at 10 mg/kg ([1]; 10.0 mg/kg, 1 h): 22.4%; inhibition in vivo at 10 mg/kg ([1]; 10.0 mg/kg, 2 h): 30.3%; inhibition in vivo at 10 mg/kg ([1]; 10.0 mg/kg, 3 h): 44.1%; inhibition in vivo at 10 mg/kg ([1]; 10.0 mg/kg, 4 h): 50%; Cytotoxic effect against the HCT 116 cell line (in words) [2]: moderate cytotoxic effects; IC50 ([2]; HCT-116, 24 h): > 200 µM; IC50 ([2]; HCT-116, 48 h): 105 ± 14.8 µM; IC50 ([2]; HCT-116, 72 h): 52.9 ± 8.1 µM
COc1ccc2cc([C@H](C)C(=O)NC(=S)Nc3ccccc3C)ccc2c1 [Compound 10, (S)-2-(6-methoxynaphthalen-2-yl)-N-(o-tolylcarbamothioyl)propanamide] | 6.17 ± 0.51 | 6.07 ± 0.83 | 5.77 ± 0.85 | 5.17 ± 0.75 | 6.47 ± 0.51 | 6.13 ± 0.47 | 5.77 ± 0.32 | 5.67 ± 0.40 | 6.20 ± 0.36 | 5.93 ± 0.31 | 5.70 ± 0.44 | 5.20 ± 0.44 | 18.4 | 13.6 | 13.5 | 33.3 | 29.3 | 36.4 | 44.1 | 37.8 | inhibition in vivo at 10 mg/kg ([1]; 10.0 mg/kg, 1 h): 19.7%; inhibition in vivo at 10 mg/kg ([1]; 10.0 mg/kg, 2 h): 22.7%; inhibition in vivo at 10 mg/kg ([1]; 10.0 mg/kg, 3 h): 20.7%; inhibition in vivo at 10 mg/kg ([1]; 10.0 mg/kg, 4 h): 35.6%; Cytotoxic effect against the HCT 116 cell line (in words) [2]: moderate cytotoxic effects; IC50 ([2]; HCT-116, 24 h): 120 ± 8.8 µM; IC50 ([2]; HCT-116, 48 h): 97.2 ± 6.8 µM; IC50 ([2]; HCT-116, 72 h): 33.3 ± 5.5 µM
COc1ccc2cc([C@H](C)C(=O)NC(=S)Nc3ccccc3OC)ccc2c1 [Compound 11, (S)-2-(6-methoxynaphthalen-2-yl)-N-((2-methoxyphenyl)carbamothioyl)propanamide] | 7.30 ± 0.60 | 6.97 ± 0.67 | 6.67 ± 0.80 | 6.50 ± 0.80 | 6.97 ± 0.12 | 6.73 ± 0.15 | 6.27 ± 0.23 | 6.07 ± 0.15 | 7.33 ± 0.06 | 6.93 ± 0.12 | 6.63 ± 0.15 | 6.17 ± 0.31 | 22.4 | 28.8 | 31.5 | 26.7 | 22.4 | 24.2 | 35.1 | 33.3 | inhibition in vivo at 10 mg/kg ([1]; 10.0 mg/kg, 1 h): 10.2%; inhibition in vivo at 10 mg/kg ([1]; 10.0 mg/kg, 2 h): 18.2%; inhibition in vivo at 10 mg/kg ([1]; 10.0 mg/kg, 3 h): 18.9%; inhibition in vivo at 10 mg/kg ([1]; 10.0 mg/kg, 4 h): 31.1%; IC50 ([2]; HCT-116, 24 h): > 200 µM; IC50 ([2]; HCT-116, 48 h): > 200 µM; IC50 ([2]; HCT-116, 72 h): > 200 µM
COc1ccc2cc([C@H](C)C(=O)NC(=S)Nc3ccccc3F)ccc2c1 [Compound 12, (S)-N-((2-fluorophenyl)carbamothioyl)-2-(6-methoxynaphthalen-2-yl)propanamide] | 6.83 ± 0.38 | 6.43 ± 0.40 | 6.00 ± 0.30 | 5.53 ± 0.06 | 6.07 ± 0.64 | 5.83 ± 0.49 | 5.57 ± 0.38 | 5.03 ± 0.12 | 6.33 ± 0.21 | 6.03 ± 0.06 | 5.60 ± 0.10 | 5.17 ± 0.21 | 8.84 | 16.7 | 24.3 | 37.8 | 18.4 | 19.7 | 18.9 | 35.6 | inhibition in vivo at 10 mg/kg ([1]; 10.0 mg/kg, 1 h): 19.7%; inhibition in vivo at 10 mg/kg ([1]; 10.0 mg/kg, 2 h): 24.2%; inhibition in vivo at 10 mg/kg ([1]; 10.0 mg/kg, 3 h): 33.3%; inhibition in vivo at 10 mg/kg ([1]; 10.0 mg/kg, 4 h): 46.7%; Cytotoxic effect against the HCT 116 cell line (in words) [2]: moderate cytotoxic effects; IC50 ([2]; HCT-116, 24 h): > 200 µM; IC50 ([2]; HCT-116, 48 h): 159 ± 17.5 µM; IC50 ([2]; HCT-116, 72 h): 68.8 ± 9.5 µM
